From publication PMC5350174, “Orai and TRPC channel characterization in FcεRI‐mediated calcium signaling and mediator secretion in human mast cells” (Physiological Reports, 2017)

Key:
Type in all cases: cell-based
TRPC6 [1] = biological target: T1, TRPC6 (Homo sapiens, UniProt Q9Y210); assay: Fura-2 calcium imaging in HEK-TRPC6 cells, inhibition of GSK-2934A-induced signal; design: human TRPC6 stably expressed in HEK cells
T1 sequence (Q9Y210 1-931): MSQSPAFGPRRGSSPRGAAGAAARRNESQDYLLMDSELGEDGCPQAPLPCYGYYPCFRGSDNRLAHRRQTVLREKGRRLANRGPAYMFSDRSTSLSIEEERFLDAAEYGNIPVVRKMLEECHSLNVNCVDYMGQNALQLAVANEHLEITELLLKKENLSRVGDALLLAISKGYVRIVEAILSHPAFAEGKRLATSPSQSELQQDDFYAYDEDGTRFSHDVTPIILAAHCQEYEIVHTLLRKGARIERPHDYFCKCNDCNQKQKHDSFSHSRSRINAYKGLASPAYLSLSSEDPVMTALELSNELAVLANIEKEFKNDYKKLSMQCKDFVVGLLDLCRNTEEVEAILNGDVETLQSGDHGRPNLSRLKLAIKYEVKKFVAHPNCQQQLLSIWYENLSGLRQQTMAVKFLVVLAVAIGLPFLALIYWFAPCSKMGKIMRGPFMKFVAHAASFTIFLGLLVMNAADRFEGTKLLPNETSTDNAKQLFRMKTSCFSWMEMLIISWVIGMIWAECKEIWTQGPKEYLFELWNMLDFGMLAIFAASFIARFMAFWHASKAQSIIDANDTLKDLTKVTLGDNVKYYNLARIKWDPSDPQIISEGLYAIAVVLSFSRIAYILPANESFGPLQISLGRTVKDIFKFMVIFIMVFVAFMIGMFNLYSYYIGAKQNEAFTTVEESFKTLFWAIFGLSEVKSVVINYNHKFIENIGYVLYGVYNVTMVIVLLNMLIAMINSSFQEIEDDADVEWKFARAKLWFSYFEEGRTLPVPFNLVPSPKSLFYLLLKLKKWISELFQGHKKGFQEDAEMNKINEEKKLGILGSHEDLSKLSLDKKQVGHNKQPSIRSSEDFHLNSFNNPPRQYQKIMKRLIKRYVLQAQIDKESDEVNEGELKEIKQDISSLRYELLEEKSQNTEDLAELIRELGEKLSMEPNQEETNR

TRPC6 [2] = biological target: T1, TRPC6; assay: Fura-2 calcium imaging in HEK-TRPC6 cells; also whole-cell patch clamp of hTRPC6 in HEK293; design: human TRPC6 expressed in HEK cells
Orai1 = biological target: T2, Orai1 (Homo sapiens, UniProt Q96D31); assay: ICRAC current inhibition in HEK cells over-expressing Orai1/STIM1 (data not shown); details: HEK293; read-out: % inhibition at 10 μmol/L
T2 construct: Orai1/STIM1 over-expressed in HEK cells; with STIM1
T2 sequence (Q96D31 whole entry): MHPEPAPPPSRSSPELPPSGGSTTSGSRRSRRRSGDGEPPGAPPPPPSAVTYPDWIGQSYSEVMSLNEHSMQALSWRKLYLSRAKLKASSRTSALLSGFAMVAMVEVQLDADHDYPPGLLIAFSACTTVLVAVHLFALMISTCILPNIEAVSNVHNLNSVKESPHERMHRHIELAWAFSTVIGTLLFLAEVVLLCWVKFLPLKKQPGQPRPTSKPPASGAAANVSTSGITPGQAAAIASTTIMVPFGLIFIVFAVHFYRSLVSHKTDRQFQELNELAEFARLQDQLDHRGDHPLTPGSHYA
T2 sequence (Q13586 23-685 partner): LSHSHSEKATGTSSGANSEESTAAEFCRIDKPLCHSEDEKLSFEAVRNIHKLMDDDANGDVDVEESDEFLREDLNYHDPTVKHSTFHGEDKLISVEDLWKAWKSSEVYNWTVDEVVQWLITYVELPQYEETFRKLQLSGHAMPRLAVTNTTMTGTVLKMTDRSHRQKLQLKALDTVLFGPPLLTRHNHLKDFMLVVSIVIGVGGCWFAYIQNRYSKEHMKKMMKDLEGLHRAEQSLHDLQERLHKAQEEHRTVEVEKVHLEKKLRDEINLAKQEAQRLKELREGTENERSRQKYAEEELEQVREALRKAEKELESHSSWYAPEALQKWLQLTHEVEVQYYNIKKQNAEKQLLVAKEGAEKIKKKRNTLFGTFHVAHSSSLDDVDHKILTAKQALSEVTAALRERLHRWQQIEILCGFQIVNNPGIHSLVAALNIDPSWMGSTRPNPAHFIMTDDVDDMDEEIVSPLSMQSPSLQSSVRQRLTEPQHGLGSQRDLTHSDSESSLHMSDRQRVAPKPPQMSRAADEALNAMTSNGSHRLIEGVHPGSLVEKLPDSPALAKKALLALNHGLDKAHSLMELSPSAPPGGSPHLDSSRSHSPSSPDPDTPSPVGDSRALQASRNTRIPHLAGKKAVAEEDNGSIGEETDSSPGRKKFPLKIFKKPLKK

## Cc1sc(Nc2ccc(Cl)cc2F)nc1C(=O)N1CCC[C@H](C)[C@@H]1C [GSK-3503A, GSK2833503A]
TRPC6 [1]
  IC50: 7.8 pIC50

## O=C(c1cc2c(s1)CCCCC2)N1CCC(n2c(=O)[nH]c3ccccc32)CC1 [GSK-2934A, GSK1702934A]
TRPC6 [2]
  EC50: 6.6 pEC50

## COc1ccc(OC)c(-c2ccc(NC(=O)c3ccncc3F)cc2)c1 [Synta66]
Orai1
  inhibition at 10 µM: 94 ± 3%
